89 molecules from the Bradley open melting point set (2014) can be followed below.

Where “and” joins values, the source holds several entries; their conditions need not be identical. Equal values may be shown once.

What is called melting point is the temperature of the solid-liquid transition. Molecule `COC(=O)c1ccc(C#N)cc1` [methyl_4-cyanobenzoate] showed a melting point of 62 °C. The result for `CC12CCC(C1(C)C)C(CCCc1ccccc1)(C1(CCCc3ccccc3)C(=O)C3(C)CCC1C3(C)C)C2=O` (centres undefined) reads 162 °C; that for `O=[N+]([O-])c1ccc(O)c([N+](=O)[O-])c1` [2,4-dinitrophenol], 108 °C; that for `O=C(O)/C(=C/c1ccccc1)c1ccccc1` [alpha-phenylcinnamic acid], 173 °C. In the case of `COC(=O)c1ccc(C(C)=O)cc1` [methyl_4-acetylbenzoate], the melting point was determined as 95 °C. Consider `O=C(O)CCc1ccc(C(=O)O)cc1` [3-(4-carboxyphenyl)propionic acid], for which the melting point was determined as 290 °C. On to `Oc1c(I)cc(I)cc1I` [2,4,6-triiodophenol], for which the melting point turned out to be 158 °C.

Consider `CCCN(CCC)S(=O)(=O)c1ccc(C(=O)O)cc1` [probenecid], for which the melting point came to 199 °C. In turn, `ON=C(/C(=N\O)c1ccco1)c1ccco1` [2,2'-furil dioxime] registered a melting point of 165 °C.

In turn, `Cc1ccc(/C=C(/C#N)c2nc(-c3ccccc3)cs2)cc1` showed a melting point of 79 °C. In turn, `O=S1(=O)CC=CC1` [3-sulfolene] gave a melting point of 65 °C. On to `O=C1C(=O)c2ccccc2-c2ccccc21` [Phenanthrene-9,10-dione], for which the melting point amounted to 210 °C. The molecule `Nc1ccccc1CO` [2-aminobenzyl alcohol] yielded a melting point of 83 °C. Molecule `O=C(O)C1=CCCCC1` [1-cyclohexene-1-carboxylic acid] returned a melting point of 32 °C. Molecule `Cn1nnc2ccccc21` [1-methyl-1h-benzotriazole] had a melting point of 65 °C. The molecule `Nc1nc[nH]n1` [3-amino-1,2,4-triazole] came in with a melting point of 151 °C. `c1ccc2c(c1)c1ccccc1c1ccccc21` [triphenylene]: the melting point amounted to 199 °C. `Cc1cc(CC(=O)O)ccc1F` [4-fluoro-3-methylphenylacetic acid] had a melting point of 106 °C. In turn, `CCCCNc1cc(C(=O)O)cc(S(N)(=O)=O)c1Oc1ccccc1` [bumetanide] registered a melting point of 230 °C. The result for `BrC(Br)Br` [Bromoform] reads 9 °C; that for `CCOC(=O)Nc1ccc(NCc2ccc(F)cc2)nc1N` [flupirtine], 114 °C; that for `CCOC(=O)c1ccc(NC(=O)C(F)(F)C(F)(F)C(F)(F)C(F)(F)C(F)(F)C(F)(F)C(F)(F)C(F)(F)F)cc1`, 136 °C. For `CC12CCC3C(CCC4(C)CC5(CCC34C)OCCO5)C1CCC2=O` (centres undefined) the value was 159 °C; for `COc1cc2c(c(OC)c1OC)-c1ccc(OC)c(=O)cc1[C@@H](NC(C)=O)CC2` [colchicine], 146 °C; for `CCCCc1c2c(cc3c1-c1ccccc1OC3)CC(C)(C)CC2=O`, 87 °C.

`[2H]C([2H])([2H])C(=O)C([2H])([2H])[2H]` [(~2~H_6_)Propan-2-one]: the melting point is -93 °C. Molecule `O=[N+]([O-])c1ccc(Oc2ccc(Cl)cc2Cl)cc1` [2,4-Dichloro-1-(4-nitrophenoxy)benzene] returned a melting point of 70.5 °C. For `O=C(O)c1cccc(Cl)c1[N+](=O)[O-]` [3-chloro-2-nitrobenzoic acid] the value was 237 °C; for `O=C(O)COc1cccnc1` [3-pyridyloxyacetic acid], 211 °C; for `O=C(O)c1cnn(-c2ccc([N+](=O)[O-])cc2)c1C(F)(F)F`, 201 °C. `CCC1(CC)C(=O)NC(=O)NC1=O` [Barbital] had a melting point of 190 °C.

`C1=CC=CC=CC=C1` [Cycloocta-1,3,5,7-tetraene] returned a melting point of -27 °C.

`COc1ccc2c(c1)CC2=O` [3-methoxybicyclo[4.2.0]octa-1,3,5-trien-7-one] yielded a melting point of 52 °C. Regarding `Nc1c(C(=O)O)cccc1C(F)(F)F` [2-amino-3-(trifluoromethyl)benzoic acid], the melting point stood at 155 °C. Take `c1ccc(P(CP(c2ccccc2)c2ccccc2)c2ccccc2)cc1` [Methylenebis(diphenylphosphine)]: the melting point worked out at 121 °C. Regarding `Nc1ccccc1` [aniline], the melting point was -6 °C (4×) and -6.2 °C (2×).

Molecule `CCC#N` [Propiononitrile] yielded a melting point of -92 °C. The result for `Cc1ccc(C(=O)c2ccccc2C(=O)O)cc1` [2-(4-methylbenzoyl)benzoic acid] reads 140 °C. Regarding `O=C(/C=C1\Cc2ccccc21)c1ccccc1`, the melting point came out at 55 °C. The result for `CCC1OC(=O)C(C)C(OC2CC(C)(OC)C(O)C(C)O2)C(C)C(OC2OC(C)CC(N(C)C)C2O)C(C)(O)CC(C)C(=O)C(C)C(O)C1(C)O` (centres undefined) reads 135 °C; that for `ClCCCCCl` [1,4-dichlorobutane], -37 °C. Molecule `CCOC(=O)C#CC(=O)OCC` [diethyl acetylenedicarboxylate] came in with a melting point of 2 °C. The molecule `CC(O)CC(=O)O` (centres undefined) [3-hydroxybutyric acid] registered a melting point of 38 °C.

The molecule `CCCCCCCCCCC` [Undecane] came in with a melting point of -26 °C. Regarding `O=C1OC(=O)C2C3C=CC(C3)C12` (stereo not drawn) [cis-5-norbornene-endo-2,3-dicarboxylic anhydride], the melting point amounted to 166 °C. In turn, `Clc1ccc(-c2ccc(Cl)cc2)cc1` [PCB-15] had a melting point of 149 °C. For `O=[N+]([O-])c1ccc(Cl)cc1Cl` [2,4-dichloronitrobenzene], the melting point is 31 °C. The result for `COc1ccc([N+](=O)[O-])cc1` [4-nitroanisole] reads 52 °C; that for `Cc1ccc(N)cc1F` [3-fluoro-4-methylaniline], 33 °C; that for `CCC1(O)CCC2C3CCC4CC(OC(C)=O)CCC4(C)C3CCC21C` (centres undefined) [17-hydroxypregnan-3-yl acetate], 165 °C. For `C=Cc1ccc(C(=O)O)cc1` [4-vinylbenzoic acid] the value was 142 °C; for `O=Cc1ccc([N+](=O)[O-])cc1` [4-nitrobenzaldehyde], 105 °C.

For the molecule `CCCCCS` [1-pentanethiol], the melting point is -76 °C. Consider `CCOP(=S)(OCC)Oc1nc(Cl)n(C(C)C)n1` [isazophos], for which the melting point amounted to 25 °C. Molecule `CC1CCC(C(C)C)C(O)C1` (racemic) [dl-menthol] came in with a melting point of 29 °C. For `CCCCC=O` [pentanal], the melting point was -91 °C. For `CC1(C)[C@H]2CC[C@]1(C)[C@H](O)C2` [borneol] the value was 207 °C; for `CC(O)CO` (centres undefined) [Propylene glycol], -60 °C; for `CCCCC(=O)CC` [Heptan-3-one], -39 °C. `CN1C(C(=O)Nc2ccccn2)=C(O)c2ccccc2S1(=O)=O` [piroxicam] showed a melting point of 198 °C. Regarding `NC(Cc1cc(I)c(Oc2cc(I)c(O)c(I)c2)c(I)c1)C(=O)O` (centres undefined) [Dextrothyroxine], the melting point worked out at 236 °C. In turn, `Cc1cc(Br)ccc1Br` [2,5-dibromotoluene] registered a melting point of 6 °C. The molecule `CCCCCCCc1ccc(O)cc1` [4-n-heptylphenol] gave a melting point of 27 °C. `CC(=O)Cl` [Acetyl chloride] returned a melting point of -112 °C. For `COc1cc(CC(=O)O)c([N+](=O)[O-])cc1OC` [4,5-dimethoxy-2-nitrophenylacetic acid] the value was 207 °C. With `O=[N+]([O-])c1ccc(Cl)c([N+](=O)[O-])c1` [1-Chloro-2,4-dinitrobenzene], the melting point was 53 °C. For `NC(=O)N1c2ccccc2C=Cc2ccccc21` [carbazepine] the value was 190 °C and 192 °C (2×). `COc1cc(C(=O)NS(=O)(=O)c2ccccc2C)ccc1Cc1cn(C)c2ccc(NC(=O)OC3CCCC3)cc12` [Zafirlukast] yielded a melting point of 139 °C. In turn, `NCCc1ccc(-c2ccccc2)cc1` [2-(4-biphenylyl)ethylamine] came in with a melting point of 52 °C.

Molecule `O=C(O)c1ccc(C(F)(F)F)cc1` [4-(trifluoromethyl)benzoic acid] yielded a melting point of 221 °C.

For `c1ccc(COCc2ccccc2)cc1` [dibenzyl ether], the melting point is 4 °C. `Clc1ccccc1` [chlorobenzene] came in with a melting point of -45 °C.

As to `CCOC(=O)c1cc(C)[nH]n1` [Ethyl 5-methyl-1H-pyrazole-3-carboxylate], the melting point is 87 °C. `CN(C)c1ccc(/C=C(\C#N)c2nc(-c3cccc4ccccc34)cs2)cc1` showed a melting point of 129 °C. Consider `O=C(O)CCc1nc(-c2ccccc2)c(-c2ccccc2)o1` [Oxaprozin], for which the melting point is 158 °C. In the case of `COc1ccc(Cl)cc1B(O)O` [5-chloro-2-methoxybenzeneboronic acid], the melting point turned out to be 138 °C.

With `CCC1(C2=CCCCCC2)C(=O)NC(=O)NC1=O` [heptabarbital], the melting point was 174 °C. The result for `Nc1c(Br)cc(Br)cc1Br` [2,4,6-Tribromoaniline] reads 121 °C. Turning to `O=[N+]([O-])c1cccc(-c2ccccc2)c1` [3-nitrobiphenyl], the melting point is 62 °C.

`Nc1cccc(C(F)(F)F)c1` [3-(trifluoromethyl)aniline] came in with a melting point of 6 °C. In the case of `CC(=O)N(C1=NC(=O)/C(=C/c2cc(C)n(-c3ccccc3)c2C)S1)c1ccccc1` [OSM-S-49], the melting point is 238 °C. In turn, `O=C(OC1OC(=O)c2ccccc21)c1ccccc1` (centres undefined) [3-oxo-1,3-dihydro-2-benzofuran-1-yl benzoate] returned a melting point of 128 °C. Turning to `CCCCOC(=O)c1ccccc1C(=O)OCCCC` [Dibutyl phthalate], the melting point was -35 °C.

`Cc1ccc(-n2ncccc2=O)cc1` [2-(4-Methylphenyl)pyridazin-3(2H)-one] returned a melting point of 97.8 °C. For `C[Si]1(C)O[Si](C)(C)O[Si](C)(C)O[Si](C)(C)O[Si](C)(C)O1` the value was -44 °C; for `O=[N+]([O-])c1ccc(O)cc1` [4-nitrophenol], 112 °C. For `O=Cc1ccc(Cl)cc1` [4-chlorobenzaldehyde] the value was 46 °C and 48.5 °C and 47 °C; for `O=Cc1ccc(Br)cc1` [p-bromobenzaldehyde], 57 °C; for `O=C(O)[C@H]1CCCC[C@H]1C(=O)O` [cis-1,2-cyclohexanedicarboxylic acid], 191 °C.
